Patent publication US10059722B2, “Cephalosporin derivatives and methods of use” (priority 2012, dated 2018)
Converted amounts (≈) assume the structure as drawn. “Also recorded” adds a separate entry of the source. Like-named read-outs stand apart in the source and are kept apart here.

Assays:
[1] = test system: wild-type Mtb infecting murine bone marrow-derived macrophages; assay: Killing of Mtb infecting bone marrow-derived macrophages (FIG. 2); type: cell-based, Mycobacterium tuberculosis; details: 100 μg/mL
[2] = test system: murine bone marrow-derived macrophages; assay: Toxicity to macrophages by visual inspection; details: 100 μg/mL; visual inspection at 400× magnification
[3] = test system: Pseudomonas aeruginosa; assay: Antibiotic spectrum: Pseudomonas aeruginosa; type: cell-based; details: Gram negative, replicating conditions, n=1 experiment
[4] = test system: non-replicating M. tuberculosis; assay: microbe, parasite or virus in culture; type: cell-based, Mycobacterium tuberculosis; details: Mycobacterium tuberculosis
[5] = test system: non-replicating wild-type Mycobacterium tuberculosis (Mtb); assay: CFU-based cidal assay, non-replicating wild-type Mtb (FIG. 1); type: cell-based
[6] = test system: Streptococcus; assay: Antibiotic spectrum: Streptococcus; type: cell-based; details: Gram positive, replicating conditions, n=1 experiment
[7] = test system: HepG2 cells; type: cell-based; details: human, 2 day
Method: Three lead compounds were identified in the first round of high throughput screening (700 compounds), which had minimal inhibitory concentrations (MIC) of 0.4-0.8 μg/mL after a six day exposure to drug (NRd6) in the model of non-replication at pH 5.0, and LD50's of 100 to >100 μg/mL against HepG2 cells (a 2 day exposure).
Furthermore, LD50 values were determined using a human hepatoma cell line (HepG2) using intracellular ATP levels as a measurement that correlated with cellular viability.

[8] = test system: Escherichia coli; assay: Antibiotic spectrum: Escherichia coli; type: cell-based; details: Gram negative, replicating conditions, n=1 experiment
[9] = test system: replicating M. tuberculosis; assay: MIC under replication (R) conditions; type: cell-based, Mycobacterium tuberculosis
[10] = test system: Staphylococcus aureus; assay: Antibiotic spectrum: Staphylococcus aureus; type: cell-based; details: Gram positive, replicating conditions, n=1 experiment
[11] = test system: Candida albicans; assay: Activity against fungus Candida albicans; type: cell-based; details: pH 5.0
Method: In addition, activity was tested against the fungus Candida albicans at pH 5.0.

With `CCCOC(=O)C1=C(C)CS[C@@H]2[C@H](NC(=O)OCc3ccccc3)C(=O)N12` [Compound 13] the “killing of wild-type Mtb infecting macrophages” value [1] was “kills”, the “increased killing in IFNγ-activated BMDMs versus unactivated” value ([1]; +50 ng/mL IFNγ vs −IFNγ) was “approximately 0.5 log10” and the “killing of intracellular Mtb, log10 reduction of CFU” value ([1]; activated macrophages, MOI 5, two independent experiments) was roughly 1.5 log10. The “toxicity to the macrophages” value [2] was “no toxicity”, the “MIC against Pseudomonas aeruginosa” value [3] was greater than 100 µg/mL and the MIC ([3]; Pseudomonas aeruginosa, read-out: MIC against Pseudomonas aeruginosa) was greater than 100 µg/mL. For the same molecule, the MIC ([4]; 72 h, pH 5, Table 2, library samples (purity approximately 75%), read-out: MIC NR pH 5.0, day 3 exposure) was 6.3 µg/mL (≈ 16.1 µM), the MIC ([4]; 144 h, pH 5, Table 2, library samples (purity approximately 75%), read-out: MIC NR pH 5.0, day 6 exposure) was less than 0.39 µg/mL and the MIC ([4]; pH 5, read-out: MIC NR pH 5, D3 exposure) was 1.6 µg/mL (≈ 4.1 µM). It also gave an MIC ([4]; pH 5, read-out: MIC NR pH 5, D6 exposure) of 0.8 µg/mL (≈ 2.05 µM), an MIC ([4]; read-out: MIC NR at 0.01 Inoc. and 3 Day Exposure to Drug, 7 Day Outgrowth, Table 8, ranges from multiple assays) of 0.2 to 0.39 µg/mL (≈ 0.512 to 0.999 µM) and an MIC ([4]; read-out: MIC NR at 0.01 Inoc. and 3 Day Exposure to Drug, 11 Day Outgrowth, Table 8, ranges from multiple assays) of 0.39 to 0.78 µg/mL (≈ 0.999 to 2 µM). For the same molecule, the “surviving Mtb (limit of detection)” value ([5]; 10 μg/mL, 7 days at 1% O2, OD580 0.01, 7H11-OADC agar) was less than 100 colony forming units, the “effect of clavulanate on killing of non-replicating Mtb” value ([5]; NR conditions, 7 days, presence or absence of clavulanate) was “clavulanate-independent; also recorded: not detected” and the “cidality against non-replicating wild-type Mtb” value ([5]; starting inoculum 0.01) was “cidal activity; also recorded: significant cidality”. For the same molecule, the “MIC against Streptococcus” value [6] was greater than 100 µg/mL, the MIC ([6]; Streptococcus, read-out: MIC against Streptococcus) was greater than 100 µg/mL and the “HepG2 Toxicity LD50” value [7] was 100 µg/mL. For the same molecule, the HepG2 toxicity [7] was 100 µg/mL, the MIC ([8]; Escherichia coli, read-out: MIC against Escherichia coli) was greater than 100 µg/mL and the “MIC against Escherichia coli” value [8] was greater than 100 µg/mL. For the same molecule, the MIC ([9]; Mycobacterium tuberculosis, pH 6.6, Table 3, resynthesized to >95% purity, read-out: MIC pH 6.6, R cells) was greater than 100 µg/mL, the “MIC against replicating Mtb in presence or absence of clavulanic acid” value ([9]; with vs without clavulanic acid) was “identical” and the “MIC against Staphylococcus aureus” value [10] was greater than 100 µg/mL. For the same molecule, the MIC ([10]; Staphylococcus aureus, read-out: MIC against Staphylococcus aureus) was greater than 100 µg/mL and the MIC [11] was greater than 100 µg/mL.
